Data taken from patent US9249115B2, “N,N1 substituted piperazines having combined antiaggregant, anticoagulant and vasodilatory activity, and method for producing same” (Vertex Closed Joint Stock Company, priority 2011, dated 2016).

Tests used:
[1] = test system: Collagen-induced thrombocyte aggregation; experiment: Collagen-induced thrombocyte aggregation, donor human thrombocyte enriched plasm; format: cell-based; details: collagen inductor; for MA, %: human thrombocyte plasm; for inhibition at 500 µM / inhibition at 1250 µM / inhibition at 2500 µM / inhibition at 5000 µM: Homo sapiens, read-out: (MA0-MAx): MA0 * 100%
Experimental: (§1) The study of antiaggregant and anticoagulant properties of N,N′-substituted piperazines on the sample of donor human blood. The blood was collected by donor ulnar vein punction with dry sharp needle without syringe. The administration of drugs that influence on thrombocyte function was cancelled in 7÷10 days before the experiment.
(§2) In graduated plastic centrifuge tube 1 ml of 3.8% basic trisodium citrate solution with pH=7.4 was placed. The ulnar vein was punctuated, the freely effluent blood was collected up to 10 ml mark, the mixture was instantly stirred to prevent air bubbles appearance. The collected and stabilized blood was split in two 5 ml portions in two tubes.
(§3) To obtain thrombocyte enriched plasm the stabilized blood was spinned at 1000 rpm (150 g) for 8 min at room temperature. The repeated spinning of the blood at 3200 rpm (2300 g) for 20 min at 22° C. yielded thrombocyte depleted plasm.
(§4) The study of anticoagulant activity was done within 2 h after thrombocyte enriched plasm obtaining. The plasm was normalized to achieve thrombocyte concentration of 200-250×10^9/L by addition of thrombocyte-free plasm. The concentration of thrombocytes was measured on SOLAR AR 2110 analyzer.
(§5) Antiaggregant properties of N,N′-substituted piperazines were evaluated by their influence on thrombocyte aggregation in tests with ADP-, collagen- and ristocetin-induced aggregation. To dissolve N,N′-substituted piperazines and to dilute reagents Tris-HCl-buffer with pH=7.4 was used.
(§6) As the general characteristic of thrombocyte aggregation activity the maximum amplitude (MA) of aggregation was taken on. That is the peak value of transmittance coefficient of the sample after aggregation agent introduction expressed in % relative to the transmittance of thrombocyte-free plasm. The response was registered on ascending linear segment of aggregation curve for 16 s.
(§7) The measurements were done using 4-channel CHRONO-LOG 490-4D analyzer (CHRONO-LOG, USA). The temperature in the cell was 37° C., the spinning speed of magnetic stirrer was 1200 rpm.
(§8) In a cuvette 0.5 ml of N,N′-substituted piperazine solution was placed, then 0.4 ml of normalized thrombocyte plasm was added. The mixture was stirred and incubated at 37° C. for 5 min. The cuvette was placed in aggregometer, then 0.05 ml of aggregation inductor solution was added (ADP or collagen or ristocetin). Thrombocyte aggregation was measured for 3 min.
In collagen-induced thrombocyte aggregation test CHRONO-PAR COLLAGEN reagent (CHRONO-LOG, USA) was diluted with buffer solution until collagen concentration reached 10 µg/ml.

[2] = test system: ADP-induced thrombocyte aggregation; experiment: ADP-induced thrombocyte aggregation, donor human thrombocyte enriched plasm; format: cell-based; details: ADP inductor; for MA, %: human thrombocyte plasm; for inhibition at 1250 µM / inhibition at 2500 µM / inhibition at 5000 µM / inhibition at 200 µM / inhibition at 500 µM: Homo sapiens, read-out: (MA0-MAx): MA0 * 100%
Experimental: as §1, §2, §3, §4, §5, §6, §7, §8
ADP-induced reversible thrombocyte aggregation test utilized CHRONO-PAR ADP reagent (CHRONO-LOG, USA) with 10 mol concentration. Primary (reversible) thrombocyte aggregation was evaluated by the response on addition of ADP threshold dose (ADP concentration is 1 mol) to plasm.

[3] = test system: experimental photothrombosis; experiment: Experimental photothrombosis model, arterial blood velocity; format: in vivo, Wistar male rats
Experimental: The studies were done on Wistar male rats with mass of 230±30 g (laboratory animals nursery “Rappolovo”, RAMS). The animals were kept with unlimited food (standard ration for laboratory rats K-120 by <<Inform-korm>>, Russia) and water allowance. […]
Thrombosis modeling: the drugs were introduced into left femoral vein, in 50 min afterwards 1 ml of Bengal rose A photosensitizer (Acros Organics, USA) solution was introduced with dose of 17 mg/kg [Boselli 2007, Petrischev 2009]. Then the incision of internal surface of animal right thigh about 2 cm in length was made. The section of the femoral vein about 5 mm in length was released from surrounding tissues and separated from neurovascular bundle. Beneath this section of the vein the black non-transparent plastic strip 3 mm in width was laid to screen off the vein and surrounding tissues from radiation. The irradiation was done using diode laser <<DPSS-laser>> (Diode Pumped Solid State Laser, South Korea) with 532 nm wavelength and 60 mW power. The area of irradiation was 1 mm^2, exposing time was 40 min. The blood flow in femoral artery was measured by high frequency Doppler ultrasonography method (<<Minimax-Doppler-K>> apparatus, frequency of sensor was 20 MHz). The blood velocity alteration due to irradiation was measured (Table 9).

[4] = test system: Ristocetin-induced thrombocyte aggregation; experiment: Ristocetin-induced thrombocyte aggregation, donor human thrombocyte enriched plasm; format: cell-based; details: ristocetin inductor; for MA (60 c), %: amplitude at 60 s
Experimental: as §1, §2, §3, §4, §5, §6, §7, §8
To study ristocetin-induced thrombocyte aggregation CHRONO-PAR RISTOCETIN reagent (CHRONO-LOG, USA) was diluted with buffer solution until ristocetin concentration reached 12 mg/ml. Thrombocyte aggregation amplitude was measured in 60 s after the beginning of the reaction.

[5] = test system: thrombocyte depleted plasm coagulation; experiment: Activated partial thromboplastin time (APTT), anticoagulant properties; format: biochemical, human; details: for APTT: thrombocyte depleted plasm
Experimental: as §1, §2, §3
To study anticoagulant properties of N,N′-substituted piperazines activated partial thromboplastin time (APTT) was measured. That is the ability of N,N′-substituted piperazines to increase thrombocyte depleted plasm coagulation time compared to the ability of control sample. The set of reagents for APTT determination (Russian Scientific Research Institute of Hematology and Transfusiology Ministry of Health of Russian Federation by Technical Regulation 9398-214-01966456-99) and COAG-A-MATE® XM coagulometer (ORGANON TEKNIKA, USA) were used.
The solutions of N,N′-substituted piperazines were mixed with thrombocyte depleted plasm at 1:1 ratio, then 0.1 ml of APTT reagent was added, the mixture was incubated in the cuvette for 5 min at 37° C., then 0.1 ml of 0.277% CaCl2 solution was added. The time of coagulation (in seconds) was measured.

Compound | MA, % ([1]; 0.5 mmol/L) [%] | MA, % ([1]; 1.25 mmol/L) [%] | MA, % ([1]; 2.5 mmol/L) [%] | MA, % ([1]; 5.0 mmol/L) [%] | inhibition at 500 µM ([1]; 0.5 mmol/L) [%] | inhibition at 1250 µM ([1]; 1.25 mmol/L) [%] | inhibition at 2500 µM ([1]; 2.5 mmol/L) [%] | inhibition at 5000 µM ([1]; 5.0 mmol/L) [%] | MA, % ([2]; 1.25 mmol/L) [%] | MA, % ([2]; 2.50 mmol/L) [%] | MA, % ([2]; 5.0 mmol/L) [%] | inhibition at 1250 µM ([2]; 1.25 mmol/L) [%] | inhibition at 2500 µM ([2]; 2.50 mmol/L) [%] | inhibition at 5000 µM ([2]; 5.0 mmol/L) [%] | (MAx-MA0): MA0 * 100% ([4]; 0.5 mmol/L) [%] | MA (60 c), % ([4]; 0.5 mmol/L) [%] | (MAx-MA0): MA0 * 100% (Ozagrel: (MA0-MAx): MA0 * 100%) ([4]; 1.25 mmol/L) [%] | MA (60 c), % ([4]; 1.25 mmol/L) [%] | (MAx-MA0): MA0 * 100% (Ozagrel: (MA0-MAx): MA0 * 100%) ([4]; 2.5 mmol/L) [%] | MA (60 c), % ([4]; 2.5 mmol/L) [%] | also measured
COc1ccc(C(=O)N2CCN(C(=N)NC(=N)N)CC2)c(OC)c1OC.Cl [Example 2, N-carbamidoyl-4-(2,3,4-trimethoxybenzoyl)piperazine-1-carboximidamide hydrochloride] | 73.0 ± 7.3 | 65.10 ± 1.8 | 58.7 ± 2.9 | 24.1 ± 0.8 | 7.9 | 17.9 | 26 | 69.6 | 15.0 ± 1.8 | 8.7 ± 2.2 | 3.1 ± 0.8 | 21.1 | 55 | 84.2 |  |  |  |  |  |  | 
COc1ccc(CN2CCN(CC(O)CS(=O)(=O)[O-])CC2)c(OC)c1OC.[Na+] (centres unmarked) [Example 3, 3-(1-(2,3,4-trimethoxybenzyl)piperazine-4-yl)-2-hydroxy-1-propanesulfonic acid sodium salt] |  |  |  |  |  |  |  |  |  |  |  |  |  |  | 6.1 | 63.0 ± 6.1 | 7.5 | 62.1 ± 8.9 | 24.0 | 51.0 ± 7.2 | V, cm/s (arterial blood velocity) ([3]; 0.01 mmol/kg, 0 min of irradiation): 7.1 ± 3.2 cm/s; V, cm/s (arterial blood velocity) ([3]; 0.01 mmol/kg, 10 min of irradiation): 7.00 ± 2.4 cm/s; V, cm/s (arterial blood velocity) ([3]; 0.01 mmol/kg, 20 min of irradiation): 7.5 ± 2.2 cm/s; V, cm/s (arterial blood velocity) ([3]; 0.01 mmol/kg, 30 min of irradiation): 6.4 ± 1.9 cm/s; V, cm/s (arterial blood velocity) ([3]; 0.01 mmol/kg, 40 min of irradiation): 6.6 ± 1.5 cm/s; V, cm/s (arterial blood velocity) ([3]; 0.025 mmol/kg, 0 min of irradiation): 8.5 ± 1.7 cm/s; V, cm/s (arterial blood velocity) ([3]; 0.025 mmol/kg, 10 min of irradiation): 8.4 ± 1.2 cm/s; V, cm/s (arterial blood velocity) ([3]; 0.025 mmol/kg, 20 min of irradiation): 8.4 ± 3.0 cm/s; V, cm/s (arterial blood velocity) ([3]; 0.025 mmol/kg, 30 min of irradiation): 8.9 ± 1.6 cm/s; V, cm/s (arterial blood velocity) ([3]; 0.025 mmol/kg, 40 min of irradiation): 8.5 ± 1.2 cm/s; (MAx-MA0): MA0 * 100% (Ozagrel: (MA0-MAx): MA0 * 100%) ([4]; 5.0 mmol/L): 77.5%; MA (60 c), % ([4]; 5.0 mmol/L): 25.1 ± 3.2%
COc1ccc(CN2CCN(C(=N)NC(=N)N)CC2)c(OC)c1OC.Cl [Example 4, N-carbamidoyl-4-(2,3,4-trimethoxybenzyl)piperazine-1-carboximidamide hydrochloride] |  | 59.0 ± 5.9 | 52.2 ± 7.9 | 26.2 ± 3.5 |  | 22.1 | 31 | 65.4 | 10.6 ± 2.0 | 5.7 ± 1.1 | 1.7 ± 0.5 | 42.1 | 68.9 | 90.7 |  |  |  |  |  |  | 
COc1ccc(CN2CCN(C(=N)N)CC2)c(OC)c1OC.O=C(O)/C=C/C(=O)O [Example 8, 4-(2,3,4-trimethoxybenzyl)piperazine-1-carboximidamide fumarate] | 72.3 ± 6.3 | 63.5 ± 9.8 | 58.5 ± 9.6 | 51.3 ± 7.9 | 5.2 | 16.8 | 23.3 | 32.8 | 8.5 ± 2.8 | 2.5 ± 1.6 |  | 55.3 | 86.8 |  | 16.1 | 50.7 ± 8.7 | 20.5 | 48.0 ± 5.8 | 35.1 | 39.2 ± 11.6 | (APTTx-APTT0): APTT0 * 100% ([5]; 1.7 mmol/L): 27.0%; APTT ([5]; 1.7 mmol/L): 61.1 ± 4.4 s; (APTTx-APTT0): APTT0 * 100% ([5]; 2.5 mmol/L): 56.5%; APTT ([5]; 2.5 mmol/L): 71.3 ± 5.2 s; (APTTx-APTT0): APTT0 * 100% ([5]; 4.1 mmol/L): 89.4%; APTT ([5]; 4.1 mmol/L): 91.1 ± 9.9 s; (APTTx-APTT0): APTT0 * 100% ([5]; 8.3 mmol/L): 201.5%; APTT ([5]; 8.3 mmol/L): 145.0 ± 7.3 s; MA (60 c), % ([4]; 0.2 mmol/L): 60.4 ± 9.1%; (MAx-MA0): MA0 * 100% (Ozagrel: (MA0-MAx): MA0 * 100%) ([4]; 5.0 mmol/L): 44.7%; MA (60 c), % ([4]; 5.0 mmol/L): 33.4 ± 9.9%; MA, % ([2]; 0.2 mmol/L): 18.5 ± 2.8%; MA, % ([2]; 0.5 mmol/L): 14.3 ± 3.0%; inhibition at 200 µM ([2]; 0.2 mmol/L): 2.6%; inhibition at 500 µM ([2]; 0.5 mmol/L): 24.7%
COc1cc(CN2CCN(C(=N)N)CC2)ccc1OCC(C)C.Cl [Example 12, 4-(4-(2-methylpropyloxy)-3-methoxybenzyl)piperazine-1-carboximidamide hydrochloride] | 71.9 ± 5.1 | 63.1 ± 9.1 | 55.4 ± 9.0 | 51.0 ± 7.1 | 6.5 | 16.8 | 28 | 35 | 5.1 ± 2.2 | 1.7 ± 0.3 |  | 67.5 | 89.2 |  |  |  |  |  |  |  | (APTTx-APTT0): APTT0 * 100% ([5]; 1.7 mmol/L): 9.4%; APTT ([5]; 1.7 mmol/L): 50.1 ± 4.0 s; (APTTx-APTT0): APTT0 * 100% ([5]; 2.5 mmol/L): 38.0%; APTT ([5]; 2.5 mmol/L): 63.2 ± 5.1 s; (APTTx-APTT0): APTT0 * 100% ([5]; 4.1 mmol/L): 53.3%; APTT ([5]; 4.1 mmol/L): 70.2 ± 3.2 s; (APTTx-APTT0): APTT0 * 100% ([5]; 8.3 mmol/L): 205.7%; APTT ([5]; 8.3 mmol/L): 140.0 ± 4.7 s; MA, % ([2]; 0.2 mmol/L): 14.1 ± 2.0%; MA, % ([2]; 0.5 mmol/L): 11.2 ± 3.3%; inhibition at 200 µM ([2]; 0.2 mmol/L): 10.2%; inhibition at 500 µM ([2]; 0.5 mmol/L): 28.7%
